Converted amounts (≈) assume the structure as drawn. The source made the active and inactive calls. No cut-off for these calls is given here.
How the values were obtained:
Haemophilus influenzae = assay: Antibacterial activity against Haemophilus influenzae MSD2261 after 18 to 20 hrs by serial dilution method; format: functional
Escherichia coli = assay: Antibacterial activity against Escherichia coli MB2884 after 18 to 20 hrs by serial dilution method; format: functional
Candida albicans = assay: Antimicrobial activity against Candida albicans MY1055 after 18 to 20 hrs by serial dilution method; format: functional
Streptococcus pneumoniae = assay: Antibacterial activity against penicillin-susceptible Streptococcus pneumoniae CL2883 after 18 to 20 hrs by serial dilution method; format: functional
Enterococcus faecalis = assay: Antibacterial activity against vancomycin-susceptible Enterococcus faecalis CL8516 after 18 to 20 hrs by serial dilution method; format: functional
Staphylococcus aureus [1] = assay: Antibacterial activity against methicillin-susceptible Staphylococcus aureus MB2865 after 18 to 20 hrs by serial dilution method; format: functional
Staphylococcus aureus [2] = assay: Antibacterial activity against methicillin-resistant Staphylococcus aureus MB5393 containing COL plasmid after 18 to 20 hrs by serial dilution method; format: functional
Staphylococcus aureus [3] = assay: Antibacterial activity against Staphylococcus aureus EP167 after 18 to 20 hrs by serial dilution method; format: functional
Staphylococcus aureus [4] = assay: Inhibition of protein synthesis in Staphylococcus aureus EP167 after 30 mins by scintillation counter; format: functional, organism-based; details: 0.5 h
Staphylococcus aureus [5] = assay: Inhibition of RNA synthesis in Staphylococcus aureus EP167 after 30 mins by scintillation counter; format: functional, organism-based
Staphylococcus aureus [6] = assay: Inhibition of DNA synthesis in Staphylococcus aureus EP167 after 30 mins by scintillation counter; format: functional, organism-based
Staphylococcus aureus [7] = assay: Inhibition of peptidoglycan synthesis in Staphylococcus aureus EP167 after 30 mins by scintillation counter; format: functional, organism-based
Staphylococcus aureus [8] = assay: Inhibition of phospholipid synthesis in Staphylococcus aureus EP167 after 30 mins by scintillation counter; format: functional, organism-based
[9] = Aqueous solubility of the compound; format: physicochemical; details: water

Compound	MIC (Haemophilus influenzae)	MIC (Escherichia coli)	MIC (Candida albicans)	MIC (Streptococcus pneumoniae)	MIC (Enterococcus faecalis)	MIC (Staphylococcus aureus [1])	MIC (Staphylococcus aureus [2])	MIC (Staphylococcus aureus [3])	IC50 (Staphylococcus aureus [4])	Activity (Staphylococcus aureus [5])	Activity (Staphylococcus aureus [6])	Activity (Staphylococcus aureus [7])	Activity (Staphylococcus aureus [8])	solubility [9]
CC(=O)NC[C@H]1CN(c2ccc(N3CCOCC3)c(F)c2)C(=O)O1 [LINEZOLID]	> 32 µg/mL	> 32 µg/mL	> 32 µg/mL											
C=C(NC(=O)c1csc(-c2nc3c(cc2O)-c2nc(cs2)C(=O)N[C@@H]([C@@H](C)O)C(=O)N/C(=C(\C)OC)c2nc(cs2)C(=O)N[C@@H]2c4nc(cs4)C(=O)N[C@@H](COC(=O)c4c5c6c(cccc6n4O)COC(=O)[C@@H](O[C@H]4C[C@]6(C)OCN(C)[C@@H]6[C@H](C)O4)[C@H]2OC5)c2nc-3cs2)n1)C(N)=O [THIAZOMYCIN]	> 32 µg/mL	> 32 µg/mL	> 32 µg/mL	0.004 µg/mL (≈ 0.00279 µM)	0.064 µg/mL (≈ 0.0446 µM)	0.016 µg/mL (≈ 0.0111 µM)	0.032 µg/mL (≈ 0.0223 µM)							
C=C(NC(=O)c1csc(-c2nc3c(cc2O)-c2nc(cs2)C(=O)N[C@@H]([C@@H](C)O)C(=O)N/C(=C(\C)OC)c2nc(cs2)C(=O)N[C@@H]2c4nc(cs4)C(=O)N[C@@H](COC(=O)c4c5c6c(cccc6n4O)COC(=O)[C@@H](O[C@H]4C[C@]6(C)OC(C)N(C)[C@@H]6[C@H](C)O4)[C@H]2OC5)c2nc-3cs2)n1)C(N)=O (some centres undefined) [THIAZOMYCIN A]	> 32 µg/mL	> 32 µg/mL	> 32 µg/mL	0.002 µg/mL (≈ 0.00138 µM)	0.25 µg/mL (≈ 0.172 µM)	0.06 µg/mL (≈ 0.0414 µM)	0.06 µg/mL (≈ 0.0414 µM)	0.004 µg/mL (≈ 0.00276 µM)	0.7 µg/mL (≈ 0.483 µM)	inactive	inactive	inactive	inactive	< 100 µg/mL

Source: ChEMBL document CHEMBL1144243, “Isolation, structure, and antibacterial activity of thiazomycin A, a potent thiazolyl peptide antibiotic from Amycolatopsis fastidiosa” (Bioorg Med Chem, 2008)
